Assays:
Type in all cases: cell-based
[1] = test system: SPI1 type III protein secretion system (SipB secretion); test: Secondary assay: Type III-dependent protein secretion of the SipB polypeptide by S. enterica (immunoblot); conditions: Salmonella enterica, read-out: SipB IC50(uM)
Procedure: Secondary assay: Type III-dependent protein secretion of the SipB polypeptide by S. enterica. The SipB protein of S. enterica is another effector of the SPI1 type III protein secretion system from S. enterica. In this cell-based procedure, the Type III-dependent secretion of SipB from the bacterial cytoplasm to the extracellular medium was measured through its reactivity with a cognate mouse monoclonal.
Salmonella enterica cells growing either in the presence or in the absence of inhibitors are induced for the production of SipB. Following an established period of growth the cells are sedimented and the amount of SipB present in the supernatant is quantified with a scanning imager following application of immunoblot techniques. Detection may employ an anti-SipB mouse monoclonal antibody (e.g., obtained from Jorge Galan, SUNY at Stony Brook, N.Y.) followed by treatment with commercially available sheep anti-mouse polyclonal antibody conjugated with horseradish peroxidase. Thereafter the membrane is treated with a peroxidase chemiluminescent substrate and exposed to film for an appropriate exposure time. Inhibition may be measured relative to untreated controls.

[2] = test system: SPI1 type III protein secretion system (SopE-Bla secretion); test: Primary assay: Type III protein secretion of the chimeric SopE-Bla polypeptide by Salmonella enterica (nitrocefin hydrolysis); conditions: read-out: SopE IC50(uM)
Text: Primary assay: Type III protein secretion of the chimeric SopÉ-Bla polypeptide by Salmonella enterica. This procedure is a cell-based assay that measures the type III-dependent secretion by Salmonella enterica of a plasmid-encoded chimeric polypeptide whose synthesis can be regulated, and which is endowed with an enzymatic activity that can be monitored calorimetrically by hydrolysis of a substrate that is unable to penetrate into the bacterial cytoplasm within the time constraints of the reaction. Thus, the colorimetric reaction is not influenced by SopÉ-Bla polypeptide in the bacterial cytoplasm. Instead, it effectively measures the amount of polypeptide that has been secreted from the S. enterica cytoplasm to the extracellular medium via type III system protein secretion.
The SopÉ-Bla recombinant polypeptide consists of two functionally distinct domains spliced together. The N-terminus domain is encoded by a polynucleotide region specifying the signal for type III secretion of the SopE polypeptide of S. enterica, an effector of the SPI1 type III protein secretion system. The C-terminus domain of SopÉ-Bla consists of a 263 amino acid peptide sequence that corresponds to the TEM-1 β-lactamase expressed by plasmid pBR322 but without its N-terminal signal sequence. The TEM-1 β-lactamase part of the SopÉ-Bla chimeric polypeptide is used as a reporter enzyme. It is capable of hydrolyzing nitrocefin resulting in a product whose accumulation can be monitored by colorimetric detection. The secretion of the SopÉ-Bla chimeric polypeptide from the cytoplasm to the extracellular medium is dependent on type III protein secretion.
For this procedure, cells grown under conditions known to favor a functional SPI1 secretion system are induced for expression of the SopÉ-Bla protein and grown either in the presence or in the absence of putative inhibitors for determined time. Nitrocefin is then added to the various cultures and its hydrolysis are used for quantitation. An inhibitor of Type III protein secretion is generally a compound that reduces the signal of the enzymatic reaction by decreasing the amount of SopÉ-Bla secreted into the extracellular medium.

[3] = test system: type III protein secretion system of P. aeruginosa PA103 (ExoU secretion); test: Tertiary assay: Type III-dependent secretion of ExoU by P. aeruginosa PA103 (SDS-PAGE band quantitation); conditions: Pseudomonas aeruginosa, ExoU secreted into extracellular medium
Text: Tertiary assay: inhibition of Type III protein secretion of effectors from a Pseudomonas aeruginosa system. Type III protein secretion is used by P. aeruginosa to secrete several essential virulence determinants. One effector of the type III protein secretion system of P. aeruginosa PA103 is the virulence determinants ExoU.
The amount of Type III-dependent secretion of ExoU by P. aeruginosa PA103 can be determined in a cell-based assay by quantification of the 73.9 kDa ExoU protein secreted into the extracellular medium. Such quantitation can be achieved by growing strain PA103 in a deferrated medium in the presence of nitrilotriacetic acid (an inducer of Type III protein secretion in P. aeruginosa) and either in the presence or absence of putative inhibitors. After a prolonged growth period, the cells are sedimented and the supernatants concentrated by ammonium sulfate precipitation. The proteins in the resuspended pellets are separated by electrophoresis on SDS-polyacrylamide gels. After staining gels with Colloidal Blue™, the 73.9 kDa ExoU band is quantitated by scanning through an imager. The effects of inhibitors on the intensity of the ExoU band may be measured relative to that of untreated controls.

For `O=C(Nc1cc(-c2cccc3ccccc23)cn([C@@H](COCc2ccccc2)C(=O)O)c1=O)c1ccc(C(F)(F)F)cc1` [Compound 8, (S)-3-Benzyloxy-2-[5-naphthalen-1-yl-2-oxo-3-(4-trifluoromethylbenzoylamino)-2H-pyridin-1-yl]propionic acid], which IC50 [1] is on record?
Its IC50 is 49.2 µM.

What about the IC50 [2] of the same molecule?
The IC50 was 29.5 µM.

What about the IC50 [3] of the same molecule?
The IC50 was over 100 µM.

With `O=C(Nc1cc(-c2ccccc2Oc2ccccc2)cn(C(Cc2ccc(Cl)cc2)C(=O)O)c1=O)c1ccc(-c2ccccc2)cc1` (stereo not drawn) [Compound 49, 2-[3-[(Biphenyl-4-carbonyl)amino]-2-oxo-5-(2-phenoxyphenyl)-2H-pyridin-1-yl]-3-(4-chlorophenyl)propionic acid] as the molecule, how does the IC50 [1] read?
Its IC50 is 48 µM.

What about the IC50 [2] of the same molecule?
The IC50 was under 0.8 µM.

And the IC50 [3]?
Its IC50 is 46.3 µM.

How did the IC50 [1] turn out when `O=Cc1ccc(-c2cc(NC(=O)c3ccc(C(F)(F)F)cc3)c(=O)n([C@@H](Cc3ccccc3)C(=O)O)c2)cc1` [Compound 5, (S)-2-[5-(4-Formylphenyl)-2-oxo-3-(4-trifluoromethylbenzoylamino)-2H-pyridin-1-yl]-3-phenylpropionic acid] was run?
The IC50 was over 100 µM.

What about the IC50 [2] of the same molecule?
Its IC50 is 49.9 µM.

What about the IC50 [3] of the same molecule?
Its IC50 is over 100 µM.

How did the IC50 [1] turn out when `O=C(Nc1cc(-c2ccccc2Oc2ccccc2)cn([C@@H](COCc2ccccc2)C(=O)O)c1=O)c1ccc(C(F)(F)F)cc1` [Compound 10, (S)-3-Benzyloxy-2-[2-oxo-5-(2-phenoxyphenyl)-3-(4-trifluoromethyl-benzoylamino)-2H-pyridin-1-yl]propionic acid] was run?
The IC50 was 37.4 µM.

What about the IC50 [2] of the same molecule?
Its IC50 is 27 µM.

What about the IC50 [3] of the same molecule?
The IC50 was over 100 µM.

Which IC50 [1] does the source give for `O=C(Nc1cc(-c2cccc3ccccc23)cn([C@@H](Cc2ccccc2)C(=O)O)c1=O)c1ccc(C(F)(F)F)cc1` [Compound 1, (S)-2-[5-Naphthalen-1-yl-2-oxo-3-(4-trifluoromethylbenzoylamino)-2H-pyridin-1-yl]-3-phenylpropionic acid] here?
Its IC50 is 82.8 µM.

What about the IC50 [2] of the same molecule?
The IC50 was 14.4 µM.

And the IC50 [3]?
Its IC50 is 82.8 µM.

With `O=C(Nc1cc(-c2ccc(F)cc2)cn(C(Cc2ccc(Cl)cc2)C(=O)O)c1=O)c1ccc(Oc2ccccc2)cc1` (stereo not drawn) [Compound 51, 3-(4-Chlorophenyl)-2-[5-(4-fluorophenyl)-2-oxo-3-(4-phenoxybenzoylamino)-2H-pyridin 1-yl]propionic acid] as the molecule, how does the IC50 [1] read?
Its IC50 is over 100 µM.

What about the IC50 [2] of the same molecule?
The IC50 was 4.9 µM.

What about the IC50 [3] of the same molecule?
Its IC50 is over 100 µM.

For `O=C(Nc1cc(-c2ccc(Oc3ccccc3)cc2)cn([C@@H](COCc2ccccc2)C(=O)O)c1=O)c1ccc(C(F)(F)F)cc1` [Compound 9, (S)-3-Benzyloxy-2-[2-oxo-5-(4-phenoxyphenyl)-3-(4-trifluoromethyl-benzoylamino)-2H-pyridin-1-yl]propionic acid], which IC50 [1] is on record?
The IC50 was 26.2 µM.

And the IC50 [2]?
Its IC50 is 10.1 µM.

What about the IC50 [3] of the same molecule?
The IC50 was over 100 µM.

How did the IC50 [1] turn out when `O=C(Nc1cc(-c2ccc3[nH]ccc3c2)cn(C(Cc2ccc(Cl)cc2)C(=O)O)c1=O)c1ccc(-c2ccccc2)cc1` (stereo not drawn) [Compound 43, 2-[3-[(Biphenyl-4-carbonyl)amino]-5-(1H-indol-5-yl)-2-oxo-2H-pyridin-1-yl]-3-(4-chlorophenyl)propionic acid] was run?
The IC50 was over 100 µM.

What about the IC50 [2] of the same molecule?
Its IC50 is 1.9 µM.

What about the IC50 [3] of the same molecule?
Its IC50 is 28 µM.

How did the IC50 [1] turn out when `O=C(Nc1cc(-c2ccoc2)cn(C(Cc2ccc(Cl)cc2)C(=O)O)c1=O)c1ccc(-c2ccccc2)cc1` (stereo not drawn) [Compound 45, 2-{3-[(Biphenyl-4-carbonyl)amino]-5-furan-3-yl-2-oxo-2H-pyridin-1-yl}-3-(4-chlorophenyl)propionic acid] was run?
Its IC50 is over 100 µM.

What about the IC50 [2] of the same molecule?
The IC50 was 4 µM.

What about the IC50 [3] of the same molecule?
Its IC50 is 49.4 µM.

Which IC50 [1] does the source give for `O=C(Nc1cc(-c2ccc(-c3ccccc3)cc2)cn(C(CSCc2ccccc2)C(=O)O)c1=O)c1ccc(C(F)(F)F)cc1` (stereo in doubt) [Compound 14, (R)-3-Benzylsulfanyl-2-[5-biphenyl-4-yl-2-oxo-3-(4-trifluoromethylbenzoylamino)-2H-pyridi-1-yl]propionic acid] here?
Its IC50 is 7.1 µM.

What about the IC50 [2] of the same molecule?
Its IC50 is 31.3 µM.

What about the IC50 [3] of the same molecule?
Its IC50 is 31.6 µM.

What does the source list for `O=C(Nc1cc(-c2cccc(O)c2)cn(C(Cc2ccc(Cl)cc2)C(=O)O)c1=O)c1ccc(C(F)(F)F)cc1` (stereo not drawn) [Compound 30, 3-(4-Chlorophenyl)-2-[5-(3-hydroxyphenyl)-2-oxo-3-(4-trifluoromethyl-benzoylamino)-2H-pyridin-1-yl]propionic acid]?
IC50 [1]: 33.4 µM; IC50 [2]: 19.3 µM; IC50 [3]: > 100 µM

What does the source list for `CN(C)c1ccc(-c2cc(NC(=O)c3ccc(-c4ccccc4)cc3)c(=O)n(C(Cc3ccc(Cl)cc3)C(=O)O)c2)cc1` (stereo not drawn) [Compound 40, 2-[3-[(Biphenyl-4-carbonyl)amino]-5-(4-dimethylaminophenyl)-2-oxo-2H-pyridin-1-yl]-3-(4-chlorophenyl)propionic acid]?
IC50 [1]: 10.2 µM; IC50 [2]: 2.8 µM; IC50 [3]: 56.4 µM

Which IC50 [1] does the source give for `O=C(Nc1cc(-c2cccc3c2sc2ccccc23)cn(C(Cc2ccc(Cl)cc2)C(=O)O)c1=O)c1ccc(C(F)(F)F)cc1` (stereo not drawn) [Compound 24, 3-(4-Chlorophenyl)-2-[5-dibenzothiophen-4-yl-2-oxo-3-(4-trifluoromethyl-benzoylamino)-2H-pyridin-1-yl]propionic acid] here?
The IC50 was 67.1 µM.

What about the IC50 [2] of the same molecule?
The IC50 was 1.6 µM.

And the IC50 [3]?
Its IC50 is 62.4 µM.

Which results are given for `O=C(Nc1cc(-c2ccc(Cl)cc2)cn(C(Cc2ccc(Cl)cc2)C(=O)O)c1=O)c1ccc(-c2ccccc2)cc1` (stereo not drawn) [Compound 33, 2-[3-[(Biphenyl-4-carbonyl)amino]-5-(4-chlorophenyl)-2-oxo-2H-pyridin-1-yl]-3(4-chlorophenyl)propionic acid]?
IC50 [1]: 39 µM; IC50 [2]: 7.6 µM; IC50 [3]: > 50 µM

Which results are given for `O=C(Nc1cc(-c2ccc(O)cc2)cn(C(Cc2ccc(Cl)cc2)C(=O)O)c1=O)c1ccc(-c2ccccc2)cc1` (stereo not drawn) [Compound 39, 2-[3-[(Biphenyl-4-carbonyl)amino]-5-(4-hydroxyphenyl)-2-oxo-2H-pyridin-1-yl]-3-(4-chlorophenyl)propionic acid]?
IC50 [1]: > 100 µM; IC50 [2]: 3.6 µM; IC50 [3]: 80.5 µM

Which results are given for `O=C(Nc1cc(-c2ccc(Oc3ccccc3)cc2)cn(C(Cc2ccc(Cl)cc2)C(=O)O)c1=O)c1ccc(-c2ccccc2)cc1` (stereo not drawn) [Compound 48, 2-[3-[(Biphenyl-4-carbonyl)amino]-2-oxo-5-(4-phenoxyphenyl)-2H-pyridin-1-yl]-3-(4-chlorophenyl)propionic acid]?
IC50 [1]: 35 µM; IC50 [2]: 1.2 µM; IC50 [3]: 33.2 µM

How did the IC50 [1] turn out when `O=C(Nc1cc(-c2ccc(C(F)(F)F)cc2)cn(C(Cc2ccc(Cl)cc2)C(=O)O)c1=O)c1ccc(-c2ccccc2)cc1` (stereo not drawn) [Compound 38, 2-[3-[(Biphenyl-4-carbonyl)amino]-2-oxo-5-(4-trifluoromethylphenyl)-2H-pyridin-1-yl]-3-(4-chlorophenyl)propionic acid] was run?
The IC50 was 3.1 µM.

And the IC50 [2]?
Its IC50 is 1.2 µM.

What about the IC50 [3] of the same molecule?
The IC50 was 21.3 µM.

Which results are given for `O=C(Nc1cc(-c2ccc(F)cc2F)cn(C(Cc2ccc(Cl)cc2)C(=O)O)c1=O)c1ccc(C(F)(F)F)cc1` (stereo not drawn) [Compound 21, 3-(4-Chlorophenyl)-2-[5-(2,4-difluorophenyl)-2-oxo-3-(4-trifluoromethyl-benzoylamino)-2H-pyridin-1-yl]propionic acid]?
IC50 [1]: 79 µM; IC50 [2]: 13.5 µM; IC50 [3]: 61.2 µM

Which results are given for `COc1ccc(-c2cc(NC(=O)c3ccc(-c4ccccc4)cc3)c(=O)n(C(Cc3ccc(Cl)cc3)C(=O)O)c2)cc1OC` (stereo not drawn) [Compound 41, 2-[3-[(Biphenyl-4-carbonyl)amino]-5-(3,4-dimethoxyphenyl)-2-oxo-2H-pyridin-1-yl]-3-(4-chlorophenyl)propionic acid]?
IC50 [1]: 15.9 µM; IC50 [2]: 3.2 µM; IC50 [3]: 67.4 µM

Source: patent US7087622B2, “Pyridone compounds as inhibitors of bacterial type III protein secreation systems” (priority 2004, dated 2006)
